Values of other authors in paper PMC7327225 (Hepatology Communications, 2020).

Test system: β1‐containing AMPK trimers
Details: explains failure to activate AMPK in muscle

For `O=C(O)c1c[nH]c2cc(Cl)c(-c3ccc(C4(O)CCC4)cc3)cc12` [PF‐06409577], the AMPK isoform selectivity is given as “selectivity toward β1‐containing AMPK trimers”.
